{"source": "ChEMBL document CHEMBL1201862", "about": "“PubChem BioAssay data set” (2004)", "key": {"[1]": {"assay": "MITF Orthogonal Assay: SK-MEL-5 CTG Assay Measured in Cell-Based System Using Plate Reader - 2084-02_Inhibitor_Dose_DryPowder_Activity_Set7.", "assay_type": "functional"}, "[2]": {"assay": "MITF: Counter assay: A375 proliferation Measured in Cell-Based System Using Plate Reader - 2084-03_Inhibitor_Dose_DryPowder_Activity_Set8.", "assay_type": "functional", "settings": "A-375"}, "[3]": {"assay": "TRPM1 promoter luciferase reporter signal decrease, dose response, MITF inhibitor project, cell-based, SK-MEL-5, dry powder, set 8 (AID 624430)", "assay_type": "functional"}, "[4]": {"assay": "HepG2 hepatoma cell cytotoxicity, dose response, cytotoxicity control, CellTiter-Glo luminescence, dry powder, set 3 (AID 720594)", "assay_type": "functional, cell-based"}, "[5]": {"assay": "HEK293T cell cytotoxicity, dose response, cytotoxicity control, CellTiter-Glo luminescence, dry powder, set 2 (AID 720595)", "assay_type": "functional, cell-based", "settings": "HEK293"}, "[6]": {"assay": "HeLa cell cytotoxicity, dose response, cytotoxicity control, CellTiter-Glo luminescence, dry powder, set 2 (AID 720593)", "assay_type": "functional, cell-based"}, "[7]": {"molecular_target": "Transthyretin (Homo sapiens, UniProt P02766)", "assay": "Luminescence-based cell-based high throughput dose response assay to identify activators of Transthyretin (TTR) transcription.", "assay_type": "functional"}, "[8]": {"molecular_target": "Heat shock protein HSP90 (Homo sapiens, UniProt P07900+P08238)", "assay": "tumor Hsp90 inhibitor potency, dose response (AID 712)", "assay_type": "functional"}, "[9]": {"assay": "Shn3 3'UTR reporter inhibitors, dose response, cell-based, Clone20 osteoblasts, firefly luciferase, cherry-picked (AID 624132)", "assay_type": "functional"}, "[10]": {"assay": "HepG2 cell cytotoxicity, dose response, cytotoxicity control for Shn3 inhibitor project, CellTiter-Glo, cherry-picked (AID 624134)", "assay_type": "functional, cell-based"}, "[11]": {"assay": "control 3'UTR Renilla luciferase suppression, dose response, counter-screen for Shn3 inhibitor project, cell-based, Clone20-Shn3RL, cherry-picked (AID 624133)", "assay_type": "functional"}, "[12]": {"assay": "reduction of Shn3 3'UTR firefly luciferase signal, dose response, Schnurri-3 inhibitor project, cell-based, Clone20 osteoblasts, cherry-pick, set 2 (AID 720490)", "assay_type": "functional"}, "[13]": {"assay": "A549 cell cytotoxicity, dose response, cytotoxicity control, 24 h, CellTiter-Glo luminescence, cherry-picks (AID 1053115)", "assay_type": "functional, cell-based", "settings": "A549, 24 h"}, "[14]": {"assay": "P. falciparum Dd2 growth inhibitors, dose response, SYBR Green, cherry-picked samples (AID 1159567)", "assay_type": "functional, cell-based"}, "[15]": {"molecular_target": "Paired box protein Pax-8 (Homo sapiens, UniProt Q06710)", "sequence (Q06710 whole entry)": "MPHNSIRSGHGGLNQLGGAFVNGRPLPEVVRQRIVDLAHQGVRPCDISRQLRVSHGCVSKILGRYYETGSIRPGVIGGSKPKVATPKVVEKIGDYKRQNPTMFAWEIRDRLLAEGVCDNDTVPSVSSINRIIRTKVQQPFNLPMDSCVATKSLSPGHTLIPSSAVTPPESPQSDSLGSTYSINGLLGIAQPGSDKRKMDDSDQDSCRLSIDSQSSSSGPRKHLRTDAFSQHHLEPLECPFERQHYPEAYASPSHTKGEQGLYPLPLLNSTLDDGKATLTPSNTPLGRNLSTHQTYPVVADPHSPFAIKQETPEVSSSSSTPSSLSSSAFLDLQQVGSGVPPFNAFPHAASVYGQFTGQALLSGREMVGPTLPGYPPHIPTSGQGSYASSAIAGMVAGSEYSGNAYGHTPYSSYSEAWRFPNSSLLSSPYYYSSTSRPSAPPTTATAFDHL", "assay": "inhibitors of PAX8-driven TPO luciferase reporter, dose response, RMG-I cells, cherry-pick (AID 687027)", "assay_type": "functional, cell-based"}, "[16]": {"assay": "A2780 ovarian cancer cell cytotoxicity, dose response, cytotoxicity control, plate reader, dry powder samples (AID 743046)", "assay_type": "functional, cell-based"}, "[17]": {"assay": "cytotoxicity in OVCAR8 ovarian cancer cells, dose response, PAX8 project, cell-based, plate reader, dry powder samples (AID 743197)", "assay_type": "functional", "settings": "OVCAR-8"}, "[18]": {"molecular_target": "G-protein coupled receptor 183 (Homo sapiens, UniProt P32249)", "sequence (P32249 whole entry)": "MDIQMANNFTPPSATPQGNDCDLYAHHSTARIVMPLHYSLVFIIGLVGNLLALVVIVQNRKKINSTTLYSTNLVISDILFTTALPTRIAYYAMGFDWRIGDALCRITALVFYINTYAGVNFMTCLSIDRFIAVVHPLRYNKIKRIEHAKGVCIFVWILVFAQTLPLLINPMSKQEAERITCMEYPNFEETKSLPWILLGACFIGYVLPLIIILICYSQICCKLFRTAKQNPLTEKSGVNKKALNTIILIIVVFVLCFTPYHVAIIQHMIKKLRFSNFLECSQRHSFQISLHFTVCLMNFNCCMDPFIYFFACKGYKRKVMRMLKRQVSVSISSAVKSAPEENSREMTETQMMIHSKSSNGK", "assay": "SAR confirmation of small molecule antagonists of the EBI2 receptor via a luminescent beta-arrestin assa.", "assay_type": "functional"}, "[19]": {"molecular_target": "T1, NADPH oxidase 1 (Homo sapiens, UniProt Q9Y5S8)", "T1 sequence (Q9Y5S8 whole entry)": "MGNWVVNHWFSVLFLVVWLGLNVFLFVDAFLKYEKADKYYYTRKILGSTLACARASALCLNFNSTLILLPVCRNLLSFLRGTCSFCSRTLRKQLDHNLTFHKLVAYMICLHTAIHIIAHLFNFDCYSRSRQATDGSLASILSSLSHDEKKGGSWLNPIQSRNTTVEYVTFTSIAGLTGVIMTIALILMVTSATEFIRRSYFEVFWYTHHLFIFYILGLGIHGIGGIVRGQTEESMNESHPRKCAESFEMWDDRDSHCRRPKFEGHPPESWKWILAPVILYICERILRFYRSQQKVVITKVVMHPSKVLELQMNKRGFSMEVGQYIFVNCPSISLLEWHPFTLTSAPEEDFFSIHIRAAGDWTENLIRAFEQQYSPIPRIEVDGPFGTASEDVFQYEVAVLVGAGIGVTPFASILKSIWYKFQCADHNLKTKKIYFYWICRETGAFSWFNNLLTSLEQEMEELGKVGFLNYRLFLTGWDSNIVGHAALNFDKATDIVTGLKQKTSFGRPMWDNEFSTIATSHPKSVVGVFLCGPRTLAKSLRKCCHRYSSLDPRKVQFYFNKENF", "assay": "Late-stage luminescence-based cell-based dose response assay to identify inhibitors of NADPH oxidase 1 (NOX1): Synthesized analogs.", "assay_type": "functional"}, "[20]": {"assay": "IOSE-T80 ovarian epithelial cell cytotoxicity, dose response, cytotoxicity control for PAX8 inhibitor project, plate reader, dry powder samples (AID 743045)", "assay_type": "functional, cell-based"}, "[21]": {"assay": "NIH:OVCAR-3 ovarian cancer cell cytotoxicity, dose response, PAX8 inhibitor project, plate reader, dry powder samples (AID 743044)", "assay_type": "functional, cell-based"}, "[22]": {"assay": "IGROV1 ovarian cancer cell cytotoxicity, dose response, PAX8 inhibitor project, plate reader, dry powder samples (AID 743043)", "assay_type": "functional, cell-based", "settings": "IGROV-1"}, "[23]": {"molecular_target": "E3 ubiquitin-protein ligase Mdm2 (Homo sapiens, UniProt Q00987)", "sequence (Q00987 whole entry)": "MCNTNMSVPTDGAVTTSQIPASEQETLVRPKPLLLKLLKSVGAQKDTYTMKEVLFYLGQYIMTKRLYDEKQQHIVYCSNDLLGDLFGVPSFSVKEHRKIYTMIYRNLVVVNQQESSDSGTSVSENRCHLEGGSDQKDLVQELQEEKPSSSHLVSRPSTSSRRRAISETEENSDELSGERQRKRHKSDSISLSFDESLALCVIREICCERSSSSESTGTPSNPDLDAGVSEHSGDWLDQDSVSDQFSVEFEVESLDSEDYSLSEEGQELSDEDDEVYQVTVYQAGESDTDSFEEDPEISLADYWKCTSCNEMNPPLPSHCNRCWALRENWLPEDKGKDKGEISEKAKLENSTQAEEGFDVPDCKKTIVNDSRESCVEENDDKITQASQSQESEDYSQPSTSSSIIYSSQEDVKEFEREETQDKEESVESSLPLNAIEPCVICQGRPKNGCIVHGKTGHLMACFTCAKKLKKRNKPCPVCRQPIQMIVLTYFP", "assay": "enhancers of MDM2-luciferase reporter signal, concentration-effect titration, project on inhibitors of MDM2 ubiquitin ligase, cellular assay, luminescent readout, 384-well plate format (AID 1394);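 further: MDM2 E3 inhibitors raise luminescence so EC50 is for signal enhancement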", "assay_type": "functional"}, "[24]": {"tested_on": "Vero", "assay": "cells", "assay_type": "functional", "settings": "Chlorocebus sabaeus"}, "[25]": {"molecular_target": "NAD-dependent protein deacylase sirtuin-5, mitochondrial (Homo sapiens, UniProt Q9NXA8)", "sequence (Q9NXA8 whole entry)": "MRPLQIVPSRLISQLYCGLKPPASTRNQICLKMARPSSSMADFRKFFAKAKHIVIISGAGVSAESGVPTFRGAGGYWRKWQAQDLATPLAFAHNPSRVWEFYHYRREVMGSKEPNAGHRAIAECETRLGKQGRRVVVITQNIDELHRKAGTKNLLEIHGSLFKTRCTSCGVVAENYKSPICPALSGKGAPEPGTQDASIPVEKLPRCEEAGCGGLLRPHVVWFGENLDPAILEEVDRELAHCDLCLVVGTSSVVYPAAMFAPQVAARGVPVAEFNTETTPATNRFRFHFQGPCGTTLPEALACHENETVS", "assay": "SIRT5 desuccinylase inhibitors, dose response, biochemical, fluorescence imaging, cherry-pick, set 5 (AID 720591);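 further: desuccinylation of succinyl peptide AMC substrate read as fluorescence after trypsin release; potency of inhibitors that lower fluorescence and may act on trypsin instead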"}, "[26]": {"assay": "Late stage assay provider results from the probe development effort to identify inhibitors of the Plasmodium falciparum M18 Aspartyl Aminopeptidase (M18AAP): radiolabel-based cell-based dose response assay to identify compounds that inhibit P. falciparum growth in RBCs, Set 2..", "assay_type": "functional"}}, "note": "Calls of active or inactive are those of the source.", "data": [{"smiles": "CN1CCN(C2=C(Nc3ccc(Br)cc3)C(=O)c3ccccc3C2=O)CC1", "values": [{"measurement": "AC50", "setting": "[1]", "value": "7.8 µM (active)"}, {"measurement": "AC50", "setting": "[2]", "value": "27 µM (active)"}, {"measurement": "AC50", "setting": "[3]", "value": "5.56 µM (active)"}]}, {"smiles": "CSc1ccc(-c2nnc(NC(=O)c3ccc(S(=O)(=O)N4CCC(C)CC4)cc3)o2)cc1", "values": [{"measurement": "AC50", "setting": "[4]", "value": "> 52 µM (inactive)"}, {"measurement": "AC50", "setting": "[5]", "value": "9.24 µM (active)"}, {"measurement": "AC50", "setting": "[6]", "value": "> 52 µM (inactive)"}]}, {"smiles": "Cc1cc(C(=O)N2CCc3ccccc32)n(-c2ccccc2)n1", "values": [{"measurement": "EC50", "setting": "[7]", "value": "> 167 µM (inactive)"}]}, {"smiles": "Cc1cccc(NC(=O)c2c(O)c3cccc4c3n(c2=O)CCC4)n1", "values": [{"measurement": "IC50", "setting": "[8]", "value": "> 50", "unit": "µM"}]}, {"smiles": "Cc1ccc(CNC(=O)c2cc3c(C)nc4ccccc4c3o2)cc1", "values": [{"measurement": "AC50", "setting": "[9]", "value": "2.49 µM (active)"}, {"measurement": "AC50", "setting": "[10]", "value": "64.3 µM (active)"}, {"measurement": "AC50", "setting": "[11]", "value": "12.2 µM (active)"}, {"measurement": "AC50", "setting": "[12]", "value": "4.02 µM (active)"}]}, {"smiles": "OC[C@H]1Nc2ccc(-c3ccccc3)cc2[C@H]2[C@@H]1CCN2Cc1ccc(F)cc1", "values": [{"measurement": "AC50", "setting": "[13]", "value": "46.4 µM (active)"}, {"measurement": "AC50", "setting": "[14]", "value": "1.25 µM (active)"}]}, {"smiles": "COc1ccc(-c2ccc3c(c2)[C@@H]2[C@@H](CCN2C(=O)NC2CCCCC2)[C@@H](CO)N3C)cc1", "values": [{"measurement": "AC50", "setting": "[15]", "value": "14.5 µM (active)"}, {"measurement": "AC50", "setting": "[16]", "value": "0.292 µM (active)"}, {"measurement": "AC50", "setting": "[17]", "value": "37.8 µM (active)"}]}, {"smiles": "O=C(/C=C/c1ccc(Br)cc1)N1CCN(C(=O)c2ccc(C(F)(F)F)cc2)CC1", "values": [{"measurement": "IC50", "setting": "[18]", "value": "0.00188 µM (active)"}]}, {"smiles": "COC(=O)Nc1ccc2c(c1)N(C(=O)CCCl)c1ccccc1S2", "values": [{"measurement": "IC50", "setting": "[19]", "value": "> 50 µM (not active)"}]}, {"smiles": "Cc1ccc(S(=O)(=O)Nc2ccc3c(c2)C(=O)N([C@H](C)CO)C[C@@H](C)[C@@H](CN(C)Cc2ccc(C(F)(F)F)cc2)OCCCC[C@@H](C)O3)cc1", "values": [{"measurement": "AC50", "setting": "[15]", "value": "5.57 µM (active)"}, {"measurement": "AC50", "setting": "[20]", "value": "53.7 µM (active)"}, {"measurement": "AC50", "setting": "[21]", "value": "36 µM (active)"}, {"measurement": "AC50", "setting": "[22]", "value": "54.4 µM (active)"}, {"measurement": "AC50", "setting": "[17]", "value": "39.6 µM (active)"}]}, {"smiles": "CCOC(=O)N1C/C(=C\\c2ccccc2)C(=O)/C(=C/c2ccccc2)C1", "values": [{"measurement": "EC50", "setting": "[23]", "value": "0.61 µM (active)"}, {"measurement": "CC50", "setting": "[24]", "value": "23 µM (active)"}]}, {"smiles": "CCOc1ccc(CCN2C(=O)C(=O)N([C@@H](Cc3ccccc3)CN3CCC[C@@H]3CN3C(=O)C(=O)NC[C@@H]3Cc3ccc(O)cc3)C[C@@H]2Cc2ccccc2)cc1", "values": [{"measurement": "AC50", "setting": "[25]", "value": "> 30 µM (inactive)"}]}, {"smiles": "COc1ccc(CNc2c3ccccc3nc3ccccc23)cc1OC", "values": [{"measurement": "IC50", "setting": "[26]", "value": "1.05 µM (active)"}]}]}
